Holding throughout (type): in vivo
Series [1] deals with Digitaria adscendens. Put plainly: Test Example 2 upland soil treatment. To be noted: Table 5, upland soil treatment, index 0-5. Put shortly: (§1)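 Pre-emergence soil application the day after sowing, active ingredient at 1 kg per hectare as diluted wettable powder, seeds covered with about 1 cm soil. Assessed 21 days after application on a 0–5 scale (5 = ≥90% herbicidal effect or phytotoxicity; 0 = <10%).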

Series [2] deals with Setaria viridis. Kind of series: Test Example 2 upland soil treatment. To be noted: Table 5, upland soil treatment, index 0-5. The essentials:
as §1

Series [3] has as its system Stellaria media. Put plainly: Test Example 2 upland soil treatment. To be noted: Table 5, upland soil treatment, index 0-5. Put shortly:
as §1

In series [4] the test system is Chenopodium album. Kind of series: Test Example 2 upland soil treatment. The following applies: Table 5, upland soil treatment, index 0-5. Put shortly: as §1
A further series has as its system Rice (Oryza sativa). Kind of series: Test Example 3 paddy field treatment, crop phytotoxicity. To be noted: Table 6, paddy field treatment, transplanted rice, active ingredient 1 kg per hectare, 21st day after dropping, index 0-5. Put shortly:
(§2)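 Weed seeds sown in puddled paddy soil under 4 cm water, with two-leaf Koshihikari rice transplanted; 10 days later a wettable powder was applied to the water surface at 1 kg active ingredient/ha. Scored 21 days after application on a 0–5 scale (0 = <10%, 5 = ≥90% herbicidal effect or phytotoxicity).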

The subject of series [5] is wheat (Triticum aestivum). Put plainly: Test Example 1 upland field foliage treatment, crop phytotoxicity. To be noted: Table 4, upland field foliage treatment, index 0-5. Put shortly: (§3)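 Post-emergence foliar spray of water-diluted wettable powder at 1 kg active ingredient per hectare, applied 14 days after sowing in upland soil. Weed control or crop phytotoxicity rated 21 days later on a 0–5 scale (5: ≥90%, 0: <10%).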

Series [6] concerns soybean (Glycine max). Described as above. The following applies: Table 4, upland field foliage treatment, index 0-5. Put shortly: as §3
The subject of series [7] is wheat (Triticum aestivum). Kind of series: Test Example 2 upland soil treatment, crop phytotoxicity. To be noted: Table 5, upland soil treatment, index 0-5. Put shortly: as §1
For series [8], the system named is soybean (Glycine max). Described as above. To be noted: Table 5, upland soil treatment, index 0-5. The essentials:
as §1

For series [9], the system named is Digitaria adscendens. Kind of series: Test Example 1 upland field foliage treatment. To be noted: Table 4, upland field foliage treatment, index 0-5. The essentials:
as §3

In series [10] the test system is Setaria viridis. Kind of series: Test Example 1 upland field foliage treatment. The following applies: Table 4, upland field foliage treatment, index 0-5. The essentials:
as §3

Series [11] concerns Stellaria media. Kind of series: Test Example 1 upland field foliage treatment. The following applies: Table 4, upland field foliage treatment, index 0-5. Put shortly:
as §3

Series [12] relates to Chenopodium album. Put plainly: Test Example 1 upland field foliage treatment. The following applies: Table 4, upland field foliage treatment, index 0-5. Put shortly: as §3
For another series, the system named is Ammannia multiflora. Put plainly: Test Example 3 paddy field treatment. The following applies: Table 6, paddy field treatment, active ingredient 1 kg per hectare, 21st day after dropping, index 0-5. The essentials:
as §2

A further series deals with Monochoria vaginalis. Kind of series: Test Example 3 paddy field treatment. The following applies: Table 6, paddy field treatment, active ingredient 1 kg per hectare, 21st day after dropping, index 0-5. Put shortly: as §2
Another series deals with Scirpus juncoides. Kind of series: Test Example 3 paddy field treatment. To be noted: Table 6, paddy field treatment, active ingredient 1 kg per hectare, 21st day after dropping, index 0-5. Put shortly: as §2
For the next series, the system named is Echinochloa crusgalli. Kind of series: Test Example 3 paddy field treatment. The following applies: Table 6, paddy field treatment, active ingredient 1 kg per hectare, 21st day after dropping, index 0-5. Put shortly: as §2

Take `CON=C(Cn1cc(C)c(-c2ccccc2)n1)C(=O)N1CCCC1` [Compound 118]: the “Herbicidal activity DA: Digitaria adscendens” value (shortened to “Herbicidal activity DA”) was 3 (herbicidal effect of not less than 50% and less than 70%, or phytotoxicity of 50% or more and less than 70%) in the series with Digitaria adscendens [1]; 4 (herbicidal effect of not less than 70% and less than 90%, or phytotoxicity of 70% or more and less than 90%) with Digitaria adscendens [9]. Moreover, the “Herbicidal activity SV: Setaria viridis” value is 3 (herbicidal effect of not less than 50% and less than 70%, or phytotoxicity of 50% or more and less than 70%) with Setaria viridis [2]; 3 (herbicidal effect of not less than 50% and less than 70%, or phytotoxicity of 50% or more and less than 70%) with Setaria viridis [10]. Moreover, the “Herbicidal activity SM: Stellaria media” value in the series with Stellaria media [3] is 4 (herbicidal effect of not less than 70% and less than 90%, or phytotoxicity of 70% or more and less than 90%); with Stellaria media [11] it was 5 (herbicidal effect of not less than 90%, or phytotoxicity of 90% or more). The “Herbicidal activity CA: Chenopodium album” value (“Herbicidal activity CA” below) in the series on Chenopodium album [4] was 4 (herbicidal effect of not less than 70% and less than 90%, or phytotoxicity of 70% or more and less than 90%); in the series on Chenopodium album [12], 4 (herbicidal effect of not less than 70% and less than 90%, or phytotoxicity of 70% or more and less than 90%). For the same compound, the “Herbicidal activity (phytotoxicity) OS” value with Rice (Oryza sativa) is 0 (herbicidal effect of not less than 0% and less than 10%, or phytotoxicity of 0% or more and less than 10%). Moreover, the “Herbicidal activity (phytotoxicity) TA: Wheat (Triticum aestivum)” value (“Herbicidal activity (phytotoxicity) TA” below) was 0 (herbicidal effect of not less than 0% and less than 10%, or phytotoxicity of 0% or more and less than 10%) in [5]; 0 (herbicidal effect of not less than 0% and less than 10%, or phytotoxicity of 0% or more and less than 10%) in [7]. Further, the “Herbicidal activity (phytotoxicity) GM: Soybean (Glycine max)” value (“Herbicidal activity (phytotoxicity) GM” below) is 0 (herbicidal effect of not less than 0% and less than 10%, or phytotoxicity of 0% or more and less than 10%) in the series with soybean (Glycine max) [6]; 0 (herbicidal effect of not less than 0% and less than 10%, or phytotoxicity of 0% or more and less than 10%) with soybean (Glycine max) [8]. The “Herbicidal activity AM” value in the series with Ammannia multiflora was 4 (herbicidal effect of not less than 70% and less than 90%, or phytotoxicity of 70% or more and less than 90%). Moreover, in the series on Monochoria vaginalis, the “Herbicidal activity MV” value was 4 (herbicidal effect of not less than 70% and less than 90%, or phytotoxicity of 70% or more and less than 90%). Further, the “Herbicidal activity SJ” value with Scirpus juncoides was 4 (herbicidal effect of not less than 70% and less than 90%, or phytotoxicity of 70% or more and less than 90%). The “Herbicidal activity EC” value with Echinochloa crusgalli was 3 (herbicidal effect of not less than 50% and less than 70%, or phytotoxicity of 50% or more and less than 70%).

On to `CON=C(Cn1cc(C)c(-c2ccccc2)n1)C(=O)N1CCOCC1` [Compound 120], for which the “Herbicidal activity DA” value in the series with Digitaria adscendens [1] is 4 (herbicidal effect of not less than 70% and less than 90%, or phytotoxicity of 70% or more and less than 90%); in the series with Digitaria adscendens [9], 4 (herbicidal effect of not less than 70% and less than 90%, or phytotoxicity of 70% or more and less than 90%). For the same compound, the “Herbicidal activity SV: Setaria viridis” value in the series on Setaria viridis [2] was 3 (herbicidal effect of not less than 50% and less than 70%, or phytotoxicity of 50% or more and less than 70%); with Setaria viridis [10], 4 (herbicidal effect of not less than 70% and less than 90%, or phytotoxicity of 70% or more and less than 90%). Besides, the “Herbicidal activity SM: Stellaria media” value with Stellaria media [3] was 4 (herbicidal effect of not less than 70% and less than 90%, or phytotoxicity of 70% or more and less than 90%); in the series on Stellaria media [11], 4 (herbicidal effect of not less than 70% and less than 90%, or phytotoxicity of 70% or more and less than 90%). Moreover, the “Herbicidal activity CA” value was 4 (herbicidal effect of not less than 70% and less than 90%, or phytotoxicity of 70% or more and less than 90%) with Chenopodium album [4]; 5 (herbicidal effect of not less than 90%, or phytotoxicity of 90% or more) in the series with Chenopodium album [12]. Moreover, the “Herbicidal activity (phytotoxicity) OS” value in the series on Rice (Oryza sativa) is 0 (herbicidal effect of not less than 0% and less than 10%, or phytotoxicity of 0% or more and less than 10%). The “Herbicidal activity (phytotoxicity) TA” value is 0 (herbicidal effect of not less than 0% and less than 10%, or phytotoxicity of 0% or more and less than 10%) in series [5]; 0 (herbicidal effect of not less than 0% and less than 10%, or phytotoxicity of 0% or more and less than 10%) in [7]. Also, the “Herbicidal activity (phytotoxicity) GM” value in the series with soybean (Glycine max) [6] was 0 (herbicidal effect of not less than 0% and less than 10%, or phytotoxicity of 0% or more and less than 10%); with soybean (Glycine max) [8], 0 (herbicidal effect of not less than 0% and less than 10%, or phytotoxicity of 0% or more and less than 10%). Further, the “Herbicidal activity AM” value with Ammannia multiflora is 4 (herbicidal effect of not less than 70% and less than 90%, or phytotoxicity of 70% or more and less than 90%). For the same compound, in the series with Monochoria vaginalis, the “Herbicidal activity MV” value was 4 (herbicidal effect of not less than 70% and less than 90%, or phytotoxicity of 70% or more and less than 90%). In the series on Scirpus juncoides, the “Herbicidal activity SJ” value was 3 (herbicidal effect of not less than 50% and less than 70%, or phytotoxicity of 50% or more and less than 70%). Moreover, the “Herbicidal activity EC” value with Echinochloa crusgalli was 3 (herbicidal effect of not less than 50% and less than 70%, or phytotoxicity of 50% or more and less than 70%).

For `CON=C(Cn1cc(C)c(-c2ccccc2)n1)C(=O)N1CCSCC1` [Compound 122], the “Herbicidal activity DA” value in the series with Digitaria adscendens [1] was 3 (herbicidal effect of not less than 50% and less than 70%, or phytotoxicity of 50% or more and less than 70%); with Digitaria adscendens [9] it was 4 (herbicidal effect of not less than 70% and less than 90%, or phytotoxicity of 70% or more and less than 90%). In addition, the “Herbicidal activity SV: Setaria viridis” value was 3 (herbicidal effect of not less than 50% and less than 70%, or phytotoxicity of 50% or more and less than 70%) with Setaria viridis [2]; 4 (herbicidal effect of not less than 70% and less than 90%, or phytotoxicity of 70% or more and less than 90%) with Setaria viridis [10]. Further, the “Herbicidal activity SM: Stellaria media” value was 4 (herbicidal effect of not less than 70% and less than 90%, or phytotoxicity of 70% or more and less than 90%) with Stellaria media [3]; 4 (herbicidal effect of not less than 70% and less than 90%, or phytotoxicity of 70% or more and less than 90%) with Stellaria media [11]. In addition, the “Herbicidal activity CA” value in the series on Chenopodium album [4] was 4 (herbicidal effect of not less than 70% and less than 90%, or phytotoxicity of 70% or more and less than 90%); in the series on Chenopodium album [12] it was 4 (herbicidal effect of not less than 70% and less than 90%, or phytotoxicity of 70% or more and less than 90%). Further, the “Herbicidal activity (phytotoxicity) OS” value in the series with Rice (Oryza sativa) was 0 (herbicidal effect of not less than 0% and less than 10%, or phytotoxicity of 0% or more and less than 10%). For the same compound, the “Herbicidal activity (phytotoxicity) TA” value is 0 (herbicidal effect of not less than 0% and less than 10%, or phytotoxicity of 0% or more and less than 10%) in [5]; 0 (herbicidal effect of not less than 0% and less than 10%, or phytotoxicity of 0% or more and less than 10%) in series [7]. Further, the “Herbicidal activity (phytotoxicity) GM” value with soybean (Glycine max) [6] was 0 (herbicidal effect of not less than 0% and less than 10%, or phytotoxicity of 0% or more and less than 10%); in the series with soybean (Glycine max) [8], 0 (herbicidal effect of not less than 0% and less than 10%, or phytotoxicity of 0% or more and less than 10%). Also, in the series with Ammannia multiflora, the “Herbicidal activity AM” value was 4 (herbicidal effect of not less than 70% and less than 90%, or phytotoxicity of 70% or more and less than 90%). Moreover, the “Herbicidal activity MV” value with Monochoria vaginalis was 4 (herbicidal effect of not less than 70% and less than 90%, or phytotoxicity of 70% or more and less than 90%). In the series with Scirpus juncoides, the “Herbicidal activity SJ” value is 3 (herbicidal effect of not less than 50% and less than 70%, or phytotoxicity of 50% or more and less than 70%). Moreover, in the series on Echinochloa crusgalli, the “Herbicidal activity EC” value is 4 (herbicidal effect of not less than 70% and less than 90%, or phytotoxicity of 70% or more and less than 90%).

Values taken from patent publication US7192906B2, “Substituted pyrazole derivatives, production process thereof, and herbicide compositions containing the derivatives” (SDS Biotech K.K., priority 2001, dated 2007).
